The supplement of paper PMC3770661
Structures can show the parent of a compound that is named as a salt. ± gives the uncertainty stated by the source.

Test system: HepG2 (L1.3 5'UTR promoter firefly luciferase reporter)
Assay: L1 promoter activity (FLuc/RLuc) relative to DMSO vehicle control (% of control); higher = stronger L1 promoter activation
Experimental: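 HepG2 cells in 96-well plates were cotransfected with pGL4.11-L1.3 5'UTR (firefly luciferase driven by the human L1.3 5'UTR promoter) and pGL4.74 (HSV-TK Renilla luciferase internal control), then treated with compound for 6 or 24 h. FLuc/RLuc ratio was normalised to the DMSO vehicle control (% of control); concentrations where RLuc fell below 50% of control were excluded (N.D.). Mean of at least two independent experiments in duplicate or quadruplicate.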

[1] = concentration (uM unless unit written): 10, treatment time: 6 h
[2] = concentration (uM unless unit written): 10, treatment time: 24 h
[3] = concentration (uM unless unit written): 50, treatment time: 6 h
[4] = concentration (uM unless unit written): 50, treatment time: 24 h
[5] = concentration (uM unless unit written): 100, treatment time: 6 h
[6] = concentration (uM unless unit written): 100, treatment time: 24 h
[7] = concentration (uM unless unit written): 125, treatment time: 6 h
[8] = concentration (uM unless unit written): 125, treatment time: 24 h
[9] = concentration (uM unless unit written): 0.1, treatment time: 24 h
[10] = concentration (uM unless unit written): 1, treatment time: 6 h
[11] = concentration (uM unless unit written): 1, treatment time: 24 h

## N.N.[Cl][Pt][Cl] [Cisplatin]
[1]
  L1 promoter activity: 109 ± 13
[2]
  L1 promoter activity: 98.4 ± 13
[3]
  L1 promoter activity: 117 ± 23
[4]
  L1 promoter activity: 105 ± 7.7
[5]
  L1 promoter activity: 148 ± 40
[6]
  L1 promoter activity: 95.4 ± 19

## CCCCc1nc(Cl)c(CO)n1Cc1ccc(-c2ccccc2-c2nnn[nH]2)cc1 [Losartan]
Concentration (uM unless unit written): 15.625, treatment time: 6 h
  L1 promoter activity: 93.6 ± 6.2
Concentration (uM unless unit written): 15.625, treatment time: 24 h
  L1 promoter activity: 92.6 ± 10
Concentration (uM unless unit written): 31.25, treatment time: 6 h
  L1 promoter activity: 106 ± 7.8
Concentration (uM unless unit written): 31.25, treatment time: 24 h
  L1 promoter activity: 102 ± 10
Concentration (uM unless unit written): 62.5, treatment time: 6 h
  L1 promoter activity: 109 ± 8.7
Concentration (uM unless unit written): 62.5, treatment time: 24 h
  L1 promoter activity: 98.6 ± 11
[7]
  L1 promoter activity: 101 ± 10
[8]
  L1 promoter activity: 95.1 ± 7.4

## COc1cccc2c1C(=O)c1c(O)c3c(c(O)c1C2=O)C[C@@](O)(C(=O)CO)C[C@@H]3O[C@H]1C[C@H](N)[C@H](O)[C@H](C)O1 [Doxorubicin]
[9]
  L1 promoter activity: 88.8 ± 15
Concentration (uM unless unit written): 0.5, treatment time: 6 h
  L1 promoter activity: 101 ± 33
Concentration (uM unless unit written): 0.5, treatment time: 24 h
  L1 promoter activity: 40.2 ± 13
[10]
  L1 promoter activity: 98.1 ± 26
[11]
  L1 promoter activity: 30.3 ± 5.5

## CC[C@]1(O)C[C@@H]2CN(CCc3c([nH]c4ccccc34)[C@@](C(=O)OC)(c3cc4c(cc3OC)N(C)[C@H]3[C@@](O)(C(=O)OC)[C@H](OC(C)=O)[C@]5(CC)C=CCN6CC[C@]43[C@@H]65)C2)C1 [Vinblastine]
Concentration (uM unless unit written): 0.1, treatment time: 6 h
  L1 promoter activity: 92.8 ± 15
[9]
  L1 promoter activity: 181 ± 31
[10]
  L1 promoter activity: 92.1 ± 23
[11]
  L1 promoter activity: 161 ± 30
Concentration (uM unless unit written): 5, treatment time: 6 h
  L1 promoter activity: 94 ± 12
Concentration (uM unless unit written): 5, treatment time: 24 h
  L1 promoter activity: 207 ± 24

## COS(C)(=O)=O [Methyl methanesulfonate]
[7]
  L1 promoter activity: 113 ± 11
[8]
  L1 promoter activity: 90.8 ± 4.2
Concentration (uM unless unit written): 250, treatment time: 6 h
  L1 promoter activity: 107 ± 15
Concentration (uM unless unit written): 250, treatment time: 24 h
  L1 promoter activity: 88.2 ± 13
Concentration (uM unless unit written): 500, treatment time: 6 h
  L1 promoter activity: 100 ± 12
Concentration (uM unless unit written): 500, treatment time: 24 h
  L1 promoter activity: 83.2 ± 4.5

## CC(C)OC(=O)C(C)(C)Oc1ccc(C(=O)c2ccc(Cl)cc2)cc1 [Fenofibrate]
[1]
  L1 promoter activity: 117 ± 9.8
[2]
  L1 promoter activity: 108 ± 5.3
[3]
  L1 promoter activity: 126 ± 11
[4]
  L1 promoter activity: 127 ± 10
[5]
  L1 promoter activity: 141 ± 12
[6]
  L1 promoter activity: 163 ± 24

## CC(=O)N1CCN(c2ccc(OCC3COC(Cn4ccnc4)(c4ccc(Cl)cc4Cl)O3)cc2)CC1 (stereo not drawn) [Ketoconazol]
[1]
  L1 promoter activity: 90.8 ± 12
[2]
  L1 promoter activity: 82.2 ± 16
Concentration (uM unless unit written): 20, treatment time: 6 h
  L1 promoter activity: 83.5 ± 11
Concentration (uM unless unit written): 20, treatment time: 24 h
  L1 promoter activity: 57.5 ± 15
Concentration (uM unless unit written): 40, treatment time: 6 h
  L1 promoter activity: 71.4 ± 9.3
Concentration (uM unless unit written): 40, treatment time: 24 h
  L1 promoter activity: 37.2 ± 4.2

## CCCCCC[C@H]1C(=O)O[C@H](C)[C@H](NC(=O)c2cccc(NC=O)c2O)C(=O)O[C@@H](C)[C@@H]1OC(=O)CC(C)C [Antimycin A]
Concentration (uM unless unit written): 0.075, treatment time: 6 h
  L1 promoter activity: 101 ± 17
Concentration (uM unless unit written): 0.075, treatment time: 24 h
  L1 promoter activity: 115 ± 21
[10]
  L1 promoter activity: 101 ± 5.7
[11]
  L1 promoter activity: 109 ± 8.4

## CC(=O)S[C@@H]1CC2=CC(=O)CC[C@]2(C)[C@H]2CC[C@@]3(C)[C@@H](CC[C@@]34CCC(=O)O4)[C@H]12 [Spironolactone]
[10]
  L1 promoter activity: 104 ± 9.8
[11]
  L1 promoter activity: 89.3 ± 3.8
Concentration (uM unless unit written): 3, treatment time: 6 h
  L1 promoter activity: 97.8 ± 9.3
Concentration (uM unless unit written): 3, treatment time: 24 h
  L1 promoter activity: 100 ± 8.9
Concentration (uM unless unit written): 30, treatment time: 6 h
  L1 promoter activity: 88.5 ± 9.3
Concentration (uM unless unit written): 30, treatment time: 24 h
  L1 promoter activity: 111 ± 12

## C=CCCC(=O)O [4-Pentenoic acid]
Concentration (uM unless unit written): 25000, treatment time: 6 h
  L1 promoter activity: 102 ± 2.3
Concentration (uM unless unit written): 25000, treatment time: 24 h
  L1 promoter activity: 28.2 ± 0.94
Concentration (uM unless unit written): 50000, treatment time: 6 h
  L1 promoter activity: 99.1 ± 4.5
Concentration (uM unless unit written): 50000, treatment time: 24 h
  L1 promoter activity: 22.5 ± 1.7
Concentration (uM unless unit written): 100000, treatment time: 6 h
  L1 promoter activity: 101 ± 26
Concentration (uM unless unit written): 100000, treatment time: 24 h
  L1 promoter activity: 25.8 ± 2.7

## CN1CCC(=C2c3ccccc3C=Cc3ccccc32)CC1 [Cyproheptadine hydrochloride sesquihydrate]
[3]
  L1 promoter activity: 90.1 ± 17
[4]
  L1 promoter activity: 70.2 ± 14
[5]
  L1 promoter activity: 74.7 ± 30
Concentration (uM unless unit written): 200, treatment time: 6 h
  L1 promoter activity: 47.2 ± 12
